According to the supplement of paper PMC4862054:

Tests used:
Conditions in all cases: incubation time: 72 h
BT-474 = assay: drug sensitivity score (DSS), CellTox Green (DSS (AUC-based score)); higher = stronger drug effect (viability inhibition or cytotoxicity); extreme values may be limits of the assay
How it was run: (§1)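 Breast cancer cell lines were seeded in 20 µl suspension into 384-well plates already holding compound and incubated for 72 h. Each compound was tested at 5 concentrations in 10-fold steps across its own 10,000-fold range. Plates were normalised to 0.1 % DMSO and a positive kill control after CellTox Green and then CellTiter-Glo readings. The area under the fitted dose-response curve served as the basis for the drug sensitivity score.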

MDA-MB-468 = assay: as above
How it was run: as §1

HCC1937 = assay: as above
How it was run: as §1

BT-549 = assay: as above
How it was run: as §1

MDA-MB-453 [1] = assay: as above
How it was run: as §1

MDA-MB-436 = assay: as above
How it was run: as §1

MDA-MB-231 = assay: as above
How it was run: as §1

CAL-51 [2] = assay: as above
How it was run: as §1

HCC1143 [3] = assay: as above
How it was run: as §1

MFM-223 = assay: as above
How it was run: as §1

HDQ-P1 [4] = assay: as above
How it was run: as §1

MCF-10A = assay: as above
How it was run: as §1

Hs578T [5] = assay: as above
How it was run: as §1

CAL-120 = assay: as above
How it was run: as §1

HCC1599 = assay: as above
How it was run: as §1

CAL-85-1 [6] = assay: as above
How it was run: as §1

MDA-MB-453 [7] = assay: normalised viability (% of control), CellTiter-Blue; higher = more viable cells (about 100 = DMSO control)
Procedure: (§2)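 DSRT, CellTiter-Blue viability, 72 h incubation. Signal is normalised to DMSO and benzethonium chloride controls. Value is the normalised response at dose 7.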

CAL-148 = assay: as above
Procedure: as §2

CAL-51 [8] = assay: as above
Procedure: as §2

HDQ-P1 [9] = assay: as above
Procedure: as §2

DU-4475 = assay: as above
Procedure: as §2

CAL-85-1 [10] = assay: as above
Procedure: as §2

HCC1143 [11] = assay: drug sensitivity score (DSS), CellTiter-Blue viability (DSS (AUC-based score)); higher = stronger viability inhibition; extreme values may be limits of the assay
Procedure: (§3)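 DSRT with the CellTiter-Blue (resazurin reduction) viability readout, fluorescence 560/590 nm, 72 h incubation. Plates were normalised to DMSO and benzethonium chloride controls. DSS is computed from the area under the fitted dose-response curve (5 or 9 concentrations).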

Hs578T [12] = assay: as above
Procedure: as §3

## C/C(=C\c1csc(C)n1)[C@@H]1C[C@@H]2O[C@]2(C)CCC[C@H](C)[C@H](O)[C@@H](C)C(=O)C(C)(C)[C@@H](O)CC(=O)O1 [Patupilone]
BT-474
  drug sensitivity score: 8.09
MDA-MB-468
  drug sensitivity score: 25.1
HCC1937
  drug sensitivity score: 0
BT-549
  drug sensitivity score: 0
MDA-MB-453 [1]
  drug sensitivity score: 0
MDA-MB-436
  drug sensitivity score: 10.2
MDA-MB-231
  drug sensitivity score: 9.94
CAL-51 [2]
  drug sensitivity score: 21
HCC1143 [3]
  drug sensitivity score: 0.908
MFM-223
  drug sensitivity score: 3
HDQ-P1 [4]
  drug sensitivity score: 0
MCF-10A
  drug sensitivity score: 7.87
Hs578T [5]
  drug sensitivity score: 7.9
CAL-120
  drug sensitivity score: 2.68
HCC1599
  drug sensitivity score: 0
CAL-85-1 [6]
  drug sensitivity score: 14.4
MDA-MB-453 [7]; 100 nM
  normalised viability: 20.4%
CAL-148; 100 nM
  normalised viability: 17.9%
CAL-51 [8]; 100 nM
  normalised viability: 12.2%
HDQ-P1 [9]; 100 nM
  normalised viability: 41.5%
DU-4475; 100 nM
  normalised viability: 7.8%
CAL-85-1 [10]; 100 nM
  normalised viability: 28.6%
HCC1143 [11]
  drug sensitivity score: 16.3
Hs578T [12]
  drug sensitivity score: 23.1

## CN(C)CCN1C(=O)c2cccc3cc(N)cc(c23)C1=O [Amonafide]
BT-474
  drug sensitivity score: 0
MDA-MB-468
  drug sensitivity score: 0
HCC1937
  drug sensitivity score: 0
BT-549
  drug sensitivity score: 0
MDA-MB-453 [1]
  drug sensitivity score: 0
MDA-MB-436
  drug sensitivity score: 11.2
MDA-MB-231
  drug sensitivity score: 0
CAL-51 [2]
  drug sensitivity score: 2.42
HCC1143 [3]
  drug sensitivity score: 0
MFM-223
  drug sensitivity score: 0
HDQ-P1 [4]
  drug sensitivity score: 0
MCF-10A
  drug sensitivity score: 0
Hs578T [5]
  drug sensitivity score: 0
CAL-120
  drug sensitivity score: 0
HCC1599
  drug sensitivity score: 0
CAL-85-1 [6]
  drug sensitivity score: 0
MDA-MB-453 [7]; 1000 nM
  normalised viability: 81.7%
CAL-148; 1000 nM
  normalised viability: 74.5%
CAL-51 [8]; 1000 nM
  normalised viability: 99.1%
HDQ-P1 [9]; 1000 nM
  normalised viability: 93.8%
DU-4475; 1000 nM
  normalised viability: 86.8%
CAL-85-1 [10]; 1000 nM
  normalised viability: 84%
HCC1143 [11]
  drug sensitivity score: 0.876
Hs578T [12]
  drug sensitivity score: 1.1

## O=C1NC(=O)[C@@H](c2cn3c4c(cccc24)CCC3)[C@@H]1c1c[nH]c2ccccc12 [Tivantinib]
BT-474
  drug sensitivity score: 0
MDA-MB-468
  drug sensitivity score: 0
HCC1937
  drug sensitivity score: 0
BT-549
  drug sensitivity score: 0
MDA-MB-453 [1]
  drug sensitivity score: 0
MDA-MB-436
  drug sensitivity score: 0
MDA-MB-231
  drug sensitivity score: 3.62
CAL-51 [2]
  drug sensitivity score: 2.14
HCC1143 [3]
  drug sensitivity score: 0
MFM-223
  drug sensitivity score: 0
HDQ-P1 [4]
  drug sensitivity score: 0
MCF-10A
  drug sensitivity score: 0
Hs578T [5]
  drug sensitivity score: 5.63
CAL-120
  drug sensitivity score: 1.28
HCC1599
  drug sensitivity score: 0
CAL-85-1 [6]
  drug sensitivity score: 5.35
MDA-MB-453 [7]; 100 nM
  normalised viability: 78.1%
CAL-148; 100 nM
  normalised viability: 112%
CAL-51 [8]; 100 nM
  normalised viability: 104%
HDQ-P1 [9]; 100 nM
  normalised viability: 106%
DU-4475; 100 nM
  normalised viability: 109%
CAL-85-1 [10]; 100 nM
  normalised viability: 77.2%
HCC1143 [11]
  drug sensitivity score: 0
Hs578T [12]
  drug sensitivity score: 2.65

## CN1CCN(CCOc2cc(OC3CCOCC3)c3c(Nc4c(Cl)ccc5c4OCO5)ncnc3c2)CC1 [Saracatinib]
BT-474
  drug sensitivity score: 1.96
MDA-MB-468
  drug sensitivity score: 0
HCC1937
  drug sensitivity score: 0
BT-549
  drug sensitivity score: 0
MDA-MB-453 [1]
  drug sensitivity score: 0
MDA-MB-436
  drug sensitivity score: 9.13
MDA-MB-231
  drug sensitivity score: 0
CAL-51 [2]
  drug sensitivity score: 6.5
HCC1143 [3]
  drug sensitivity score: 0
MFM-223
  drug sensitivity score: 0
HDQ-P1 [4]
  drug sensitivity score: 2.22
MCF-10A
  drug sensitivity score: 0
Hs578T [5]
  drug sensitivity score: 0
CAL-120
  drug sensitivity score: 0
HCC1599
  drug sensitivity score: 0
CAL-85-1 [6]
  drug sensitivity score: 6.93
MDA-MB-453 [7]; 1000 nM
  normalised viability: 86.5%
CAL-148; 1000 nM
  normalised viability: 83.9%
CAL-51 [8]; 1000 nM
  normalised viability: 60.9%
HDQ-P1 [9]; 1000 nM
  normalised viability: 40.6%
DU-4475; 1000 nM
  normalised viability: 102%
CAL-85-1 [10]; 1000 nM
  normalised viability: 51.4%
HCC1143 [11]
  drug sensitivity score: 0
Hs578T [12]
  drug sensitivity score: 0

## C[C@]12CC[C@H](O)CC1=CC[C@@H]1[C@@H]2CC[C@]2(C)C(c3cccnc3)=CC[C@@H]12 [Abiraterone]
BT-474
  drug sensitivity score: 0
MDA-MB-468
  drug sensitivity score: 0
HCC1937
  drug sensitivity score: 0
BT-549
  drug sensitivity score: 0
MDA-MB-453 [1]
  drug sensitivity score: 0
MDA-MB-436
  drug sensitivity score: 0
MDA-MB-231
  drug sensitivity score: 0
CAL-51 [2]
  drug sensitivity score: 0
HCC1143 [3]
  drug sensitivity score: 0
MFM-223
  drug sensitivity score: 0
HDQ-P1 [4]
  drug sensitivity score: 0
MCF-10A
  drug sensitivity score: 0
Hs578T [5]
  drug sensitivity score: 0
CAL-120
  drug sensitivity score: 0
HCC1599
  drug sensitivity score: 0
CAL-85-1 [6]
  drug sensitivity score: 0
MDA-MB-453 [7]; 500 nM
  normalised viability: 92.3%
CAL-148; 500 nM
  normalised viability: 94.7%
CAL-51 [8]; 500 nM
  normalised viability: 103%
HDQ-P1 [9]; 500 nM
  normalised viability: 112%
DU-4475; 500 nM
  normalised viability: 94.2%
CAL-85-1 [10]; 500 nM
  normalised viability: 77.2%
HCC1143 [11]
  drug sensitivity score: 0
Hs578T [12]
  drug sensitivity score: 0

## CCCCCCCCc1ccc(CCC(N)(CO)CO)cc1 [Fingolimod]
BT-474
  drug sensitivity score: 5.23
MDA-MB-468
  drug sensitivity score: 6.79
HCC1937
  drug sensitivity score: 17.9
BT-549
  drug sensitivity score: 1.17
MDA-MB-453 [1]
  drug sensitivity score: 1.86
MDA-MB-436
  drug sensitivity score: 2.64
MDA-MB-231
  drug sensitivity score: 6.51
CAL-51 [2]
  drug sensitivity score: 1.3
HCC1143 [3]
  drug sensitivity score: 0
MFM-223
  drug sensitivity score: 0.724
HDQ-P1 [4]
  drug sensitivity score: 2.47
MCF-10A
  drug sensitivity score: 11.1
Hs578T [5]
  drug sensitivity score: 1.46
CAL-120
  drug sensitivity score: 0.861
HCC1599
  drug sensitivity score: 0
CAL-85-1 [6]
  drug sensitivity score: 7.94
MDA-MB-453 [7]; 1000 nM
  normalised viability: 103%
CAL-148; 1000 nM
  normalised viability: 96.3%
CAL-51 [8]; 1000 nM
  normalised viability: 112%
HDQ-P1 [9]; 1000 nM
  normalised viability: 110%
DU-4475; 1000 nM
  normalised viability: 109%
CAL-85-1 [10]; 1000 nM
  normalised viability: 93.4%
HCC1143 [11]
  drug sensitivity score: 0
Hs578T [12]
  drug sensitivity score: 5.16

## O=C(O)CCCc1ccc(N(CCCl)CCCl)cc1 [Chlorambucil]
BT-474
  drug sensitivity score: 0
MDA-MB-468
  drug sensitivity score: 0
HCC1937
  drug sensitivity score: 0
BT-549
  drug sensitivity score: 0
MDA-MB-453 [1]
  drug sensitivity score: 0
MDA-MB-436
  drug sensitivity score: 2.34
MDA-MB-231
  drug sensitivity score: 0
CAL-51 [2]
  drug sensitivity score: 0
HCC1143 [3]
  drug sensitivity score: 0
MFM-223
  drug sensitivity score: 0
HDQ-P1 [4]
  drug sensitivity score: 0
MCF-10A
  drug sensitivity score: 0
Hs578T [5]
  drug sensitivity score: 0
CAL-120
  drug sensitivity score: 0
HCC1599
  drug sensitivity score: 0
CAL-85-1 [6]
  drug sensitivity score: 0
MDA-MB-453 [7]; 1000 nM
  normalised viability: 113%
CAL-148; 1000 nM
  normalised viability: 105%
CAL-51 [8]; 1000 nM
  normalised viability: 101%
HDQ-P1 [9]; 1000 nM
  normalised viability: 98.9%
DU-4475; 1000 nM
  normalised viability: 103%
CAL-85-1 [10]; 1000 nM
  normalised viability: 97.5%
HCC1143 [11]
  drug sensitivity score: 0
Hs578T [12]
  drug sensitivity score: 0
